From PMC6026847, “Synthesis and Evaluation of the First Fluorescent Antagonists of the Human P2Y2 Receptor Based on AR-C118925” (Journal of Medicinal Chemistry, 2018)
Read-outs that look alike come from different tables or passages of the source. Values belong to the compound of their own block, whether it stands above or below them.

Assays:
[1] = tested on: human bronchial epithelial cells; design: method as in PMID 15231488; conditions: ex vivo; cited from earlier work
[2] = tested on: panel of 37 other receptors; design: method as in PMID 15231488; conditions: 10 μM; cited from earlier work
[3] = tested on: hP2Y2; design: method as in PMID 28958619; conditions: cited from earlier work
[4] = biological target: T1, hP2Y2R (Homo sapiens, UniProt P41231); assay: Calcium-mobilization assay in P2Y2-1321N1 cells (antagonism of UTPγS); format: cell-based; conditions: for Kb: Gaddum equation
T1 construct: The 1321N1 cells expressing wild-type P2Y2R (P2Y2R-1321N1) were gifted by Dr. Elizabeth Rosethorne; expressed in transfected cells; host or cells: 1321N1 astrocytoma cells (P2Y2R-1321N1), gifted
T1 sequence (P41231 whole entry): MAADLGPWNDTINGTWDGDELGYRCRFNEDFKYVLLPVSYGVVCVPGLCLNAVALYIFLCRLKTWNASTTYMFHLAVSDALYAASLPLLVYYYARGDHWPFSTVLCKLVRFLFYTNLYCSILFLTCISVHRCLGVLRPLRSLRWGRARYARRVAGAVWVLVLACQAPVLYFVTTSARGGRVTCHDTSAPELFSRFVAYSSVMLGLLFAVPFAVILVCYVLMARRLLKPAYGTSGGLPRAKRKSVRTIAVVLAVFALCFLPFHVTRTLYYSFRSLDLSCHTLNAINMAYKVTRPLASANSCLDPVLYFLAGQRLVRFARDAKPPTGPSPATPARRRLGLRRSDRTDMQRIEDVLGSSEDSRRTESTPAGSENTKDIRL

[5] = biological target: T2, NLuc-P2Y2R (Homo sapiens, UniProt P41231); assay: NanoBRET competition binding in NLuc-P2Y2 1321N1 cells; conditions: Table 7, competition binding with fluorescent ligand 98, mean ± SEM
T2 construct: expressed in transfected cells
T2 sequence (P41231 2-377 limits assumed): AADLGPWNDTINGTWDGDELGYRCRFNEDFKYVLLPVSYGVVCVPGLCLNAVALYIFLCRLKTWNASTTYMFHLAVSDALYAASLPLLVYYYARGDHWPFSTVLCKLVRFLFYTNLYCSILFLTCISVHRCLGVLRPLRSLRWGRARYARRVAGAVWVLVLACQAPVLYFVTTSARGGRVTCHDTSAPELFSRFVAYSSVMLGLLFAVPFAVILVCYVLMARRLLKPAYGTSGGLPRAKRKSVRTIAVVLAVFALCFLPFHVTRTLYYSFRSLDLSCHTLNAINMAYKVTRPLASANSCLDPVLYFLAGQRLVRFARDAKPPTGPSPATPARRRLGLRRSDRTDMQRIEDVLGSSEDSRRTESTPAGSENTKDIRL

[6] = biological target: T2, NLuc-P2Y2R; assay: Calcium signal of NLuc-tagged P2Y2 receptors in 1321N1 cells; format: cell-based; conditions: n = 3, read-out: UTPγS EC50 (calcium signal)
Procedure: To create the NLuc-P2Y2R constructs, human P2Y2R DNA (obtained from the Missouri S&T cDNA Resource Center) was amplified by PCR to remove the methionine start signal and cloned into pCR2.1 (linearized vector, Invitrogen). P2Y2R was then subcloned in-frame with the membrane-signal sequence of the 5HT3A receptor and the full-length sequence of nanoluciferase.
P2Y2-1321N1 cells seeded into black-sided 96-well view plates were incubated at 37 °C without CO2 for 45 min in a total volume of 100 μL of a HEPES-buffered saline solution (HBSS; 10 mM HEPES, 10 mM glucose, 145 mM NaCl, 5 mM KCl, 1 mM MgSO4, 2 mM sodium pyruvate, and 1.3 mM CaCl2) containing 2.5 mM probenecid, 2.3 μM Fluo 4AM, 0.023% pluronic acid, 0.5 mM Brilliant Black, 1 U/mL apyrase, and the ligand under investigation or the vehicle. The plates were then loaded onto a plate reader (FLEXstation, Molecular Devices), and the fluorescence was measured (excitation: 485 nm, emission: 525 nm) every 1.52 s for up to 200 s after the addition of UTPγS at 15 s. For the investigation of the BODIPYFL-labeled ligands, Fluo 4AM was replaced with 2.0 μM X-Rhod-1 AM (excitation: 584 nm, emission: 612 nm).

[7] = Table 7, shift of agonist dose–response curve by a single antagonist concentration, mean ± SEM, read-out: pKb Ca2+ mobilization (converted)

Compound: Cc1ccc2c(c1)C=Cc1cc(C)ccc1C2c1cn(Cc2ccc(C(=O)Nc3nnn[nH]3)o2)c(=O)[nH]c1=S [Example 1]
antagonism of ATPγS-induced mucin secretion [1]: concentration-dependently antagonize | activity against a panel of 37 other receptors [2]: inactive

Kb ([4]; Table 1, shift of UTPγS concentration–response curve by a single antagonist concentration, mean ± SEM, read-out: hP2Y2 pKb (converted)): 372 nM
Compound: Cc1ccc2c(c1)C=Cc1cc(C)ccc1C2c1cn(Cc2nc(C(=O)O)cs2)c(=O)[nH]c1=S [Example 2, 2-((5-(2,8-dimethyl-5H-dibenzo[a,d][7]annulen-5-yl)-2-oxo-4-thioxo-3,4-dihydropyrimidin-1(2H)-yl)methyl)thiazole-4-carboxylic acid]
pA2 (literature/reported value) [3]: c The literature value is pA2 = 5.7.[8]

Ki ([5]; read-out: pKi NanoBRET (98) (converted)): 145 nM | Kb [4, 7]: 295 nM | Kd ([4]; quoted in text for nonfluorescent antagonists, mean ± SEM, read-out: hP2Y2R affinity pKd (converted)): 295 nM
Compound: Cc1ccc2c(c1)C=Cc1cc(C)ccc1C2c1cn(Cc2cc(C(=O)O)cc(C(=O)O)c2)c(=O)[nH]c1=S [Example 60, 5-((5-(2,8-Dimethyl-5H-dibenzo[a,d][7]annulen-5-yl)-2-oxo-4-thioxo-3,4-dihydropyrimidin-1(2H)-yl)methyl)isophthalic Acid]

Kb [4, 7]: 257 nM
Compound: O=c1[nH]c(=S)c(C2c3ccccc3CCc3ccccc32)cn1[C@@H]1O[C@H](COP(=O)([O-])OP(=O)([O-])C(Cl)(Cl)P(=O)([O-])[O-])[C@@H](O)[C@H]1O.[Na+].[Na+].[Na+].[Na+] [Example 99, reference compound]
pA2 (literature/reported value) [3]: d Reported pA2 = 8.0.[8]

Compound: O=c1ccn([C@@H]2O[C@H](COP(=O)(O)OP(=O)(O)OP(O)(O)=S)[C@@H](O)[C@H]2O)c(=O)[nH]1 [UTPγS, uridine-5′-(γ-thio)-triphosphate, reference compound]
pKi NanoBRET (98) [5]: 5.46 ± 0.04 (6) | EC50 ([4]; agonist, calcium mobilization, n = 25): 7.9 nM | EC50 [6]: 91 ± 12 nM
